Experiment [1] has as its system sildenafil aptamer molecular gate (SDF-Aptamer + 3' TGCAAT) (DNA, aptamer) ATTGCAAACCCTCTACCAACAATCGTACTCGTTCGACGTGATGCAAT
Put plainly: TMB release from aptamer-gated silica nanoparticles. The settings on record: 1 µM sildenafil; immobilised aptamer gate; about 63 ± 6.2% of TMB released; control leakage 7.2 ± 4.4%.

Experiment [2] concerns SDF-Aptamer (DNA, aptamer) ATTGCAAACCCTCTACCAACAATCGTACTCGTTCGACGTGA
Kind of experiment: fluorescent graphene oxide assay, Langmuir one-ligand fit. The note with it: K+ 2.7 mM, Na+ 137 mM; PBS (0.01 M phosphate, pH 7.4), 25 °C; aptamer 1 µM; unbound aptamer removed with 4 mg/mL GO; salt form used not stated (b30 mentions citrate).

The structures appear in SMILES notation.

On to `CCCc1nn(C)c2c(=O)[nH]c(-c3cc(S(=O)(=O)N4CCN(C)CC4)ccc3OCC)nc12`, for which, in experiment [1], the binding result is “yes”. In addition, the KD in experiment [2] amounted to 205.3 ± 38.1 nM.

For orientation: KD means the equilibrium constant for the complex coming apart.

(Values after paper PMC11674377 (2024).)
